Series [1] has as its system MCF7/WT (breast cancer). Briefly: Sequential treatment of MCF7/WT with Taxol followed by CDDP, % cell survival. The series is classed as cell-based, human. As to conditions: 2 hour. The method, then: (§1) In vitro experiments were conducted to determine the efficacy of platinum/taxane combination therapy and to determine if the order of administration of the agents affected the cytotoxicity. The agents used were cisplatin (CDDP) and paclitaxel (Taxol®®), and the cell line used was MCF7/WT (breast cancer). The results of the experiments are shown below in Tables 1 and 2.

Series [2] relates to MCF7/WT (breast cancer). Briefly: Sequential treatment of MCF7/WT with CDDP followed by Taxol, % cell survival. The series is classed as cell-based, human. As to conditions: 2 hour. The procedure:
as §1

The conditions of series [3]: cited from earlier work.

For the compound `[NH2][Pt]([NH2])([Cl])[Cl]` [CDDP, cisplatin], the “% cell survival, Average” value in series [1] (CDDP 4.25 uM alone) amounted to 73%; in series [1] (CDDP 8.5 uM alone), 52%; in series [2] (CDDP 4.25 uM alone), 71%; in series [2] (CDDP 8.5 uM alone), 50%.
Regarding `O=S(=O)([O-])CCSSCCS(=O)(=O)[O-].[Na+].[Na+]` [Dimesna, Disodium 2,2′-dithiobis ethane sulfonate], in series [3] (co-administration), the “interference with cytotoxic effects of co-administered antineoplastic agent(s)” value is given as “not to interfere with the cytotoxic effects”. In addition, in series [3] (human patients), the “effect on unwanted toxic effects of single agent cisplatin and single agent paclitaxel” value is on record as “reduce the unwanted toxic effects”.
`CC(=O)O[C@H]1C(=O)[C@@]2(C)[C@H]([C@H](OC(=O)c3ccccc3)[C@]3(O)C[C@H](OC(=O)[C@H](O)[C@@H](NC(=O)c4ccccc4)c4ccccc4)C(C)=C1C3(C)C)[C@]1(OC(C)=O)CO[C@@H]1C[C@@H]2O` [Taxol ®, paclitaxel]: the “% cell survival, Average” value amounted to 88% in series [1] (Taxol 27 nM alone), 82% in series [1] (Taxol 45 nM alone), 71% in series [2] (Taxol 27 nM alone) and 45% in series [2] (Taxol 45 nM alone).

The values above are taken from US6596320B1, “Method for treating cancer having greater efficacy and reduced adverse effects” (BioNumerik Pharmaceuticals, Inc., priority 2002, dated 2003).
